Test results published in patent US8106029B2, “Use of A2A adenosine receptor agonists” (Gilead Sciences, Inc., priority 2004, dated 2012).
≈ marks a conversion by molar mass, not a printed value. Like-named read-outs stand apart in the source and are kept apart here.

Key:
[1] = test system: A2A-adenosine receptors; conditions: average of the 12 assays
[2] = Example 1: PD model (Michaelis-Menten) of heart rate time-course in healthy male subjects; format: in vivo, human
Experimental: (§1) The purpose of this study was to investigate the pharmacokinetics (PK), pharmacodynamics (PD), and the maximum tolerated dose of regadenoson in healthy human subjects.
(§2) Thirty-six healthy, male subjects were included in the study. […] ECG, blood pressure (BP), and heart rate (HR) were recorded for up to 24 hours post-dose. Adverse events (AE) were monitored for 24 hours post dose and via telephone 7 days later. A population approach was utilized in applying a three-compartmental PK model to the plasma concentration-time and a Michaelis-Menten model to the time-course of heart rate. The potential influence of various covariates on PK and PD model parameters was investigated.

[3] = Solubility in water; format: physicochemical
Experimental: Therefore, regadenoson can be dissolved and administered in water so long as the desired weight amount of regadenoson can be administered in an acceptable volume. For example, a preferred dose of about 400 micrograms can be administered in 8 mL of water.

[4] = Example 1: population PK after single IV bolus in healthy male subjects; format: in vivo; conditions: human
Experimental: as §1, §2

[5] = test system: human platelets; test: Cell calcium mobilization, human platelets; format: cell-based; conditions: Platelet, mean ± SE, read-out: Cell calcium Mobilization, potency
[6] = test system: human platelets; test: Platelet aggregation; format: cell-based; conditions: mean ± SE, read-out: Platelet Aggregation, potency
[7] = test system: human neutrophils; test: Superoxide anion production, human neutrophils; format: cell-based; conditions: Neutrophil, mean ± SE, read-out: Superoxide anion Production, potency
[8] = molecular target: T1, A2A-adenosine receptors (Rattus norvegicus, UniProt P30543); test: Membrane binding, displacement of [3H]-CG-S21680, rat brain striatal membranes; conditions: Rat striatum, mean ± SE, read-out: Membrane Binding, affinity [Ki]
T1 construct: rat brain striatal membranes; from tissue; host or cells: rat brain striatum membranes
T1 sequence (P30543 whole entry): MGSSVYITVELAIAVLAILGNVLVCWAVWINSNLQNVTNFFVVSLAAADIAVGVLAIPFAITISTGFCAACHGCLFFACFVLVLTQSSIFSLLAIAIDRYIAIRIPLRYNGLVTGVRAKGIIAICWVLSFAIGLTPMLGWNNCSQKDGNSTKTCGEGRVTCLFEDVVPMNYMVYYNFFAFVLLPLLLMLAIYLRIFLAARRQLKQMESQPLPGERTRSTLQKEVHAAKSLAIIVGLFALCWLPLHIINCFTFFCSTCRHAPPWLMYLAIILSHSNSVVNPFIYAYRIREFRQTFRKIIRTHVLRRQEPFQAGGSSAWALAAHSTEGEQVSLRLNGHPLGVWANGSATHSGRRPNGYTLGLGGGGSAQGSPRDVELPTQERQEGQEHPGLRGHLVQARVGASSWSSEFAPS

[9] = Example 1: tolerability / maximum tolerated dose in healthy male subjects; format: in vivo, human; conditions: for MTD at 24 h: male, human, in vivo, intravenous
Experimental: as §1, §2

[10] = molecular target: T1, A2A-adenosine receptors; test: Membrane binding, displacement of [3H]-ZM241385, rat brain striatal membranes; conditions: Rat striatum, mean ± SE, read-out: Membrane Binding, affinity [Ki]
[11] = Example 2: PD model (Michaelis-Menten) of heart rate; format: in vivo, human; conditions: catheterization subjects
Experimental: (§3) The purpose of this study was to investigate the pharmacokinetics (PK) and pharmacodynamics (PD) of regadenoson in subjects undergoing clinically indicated cardiac catheterization.
(§4) Thirty-six male and female subjects undergoing clinically indicated coronary angiography were studied. […] ECG, average coronary peak flow velocity (APV), measured using intracoronary Doppler flow wire, blood pressure (BP), and heart rate (HR) were continuously monitored for up to 3 hours post-dose. Occurrence of adverse events (AEs) was monitored for approximately 3 hours post dosing and via telephone approximately 14 days later. A population approach was utilized in applying PK and PD models to the plasma concentration, APV, and HR data. The potential influence of various covariates on PK and PD model parameters was investigated.

[12] = Example 2: population PK in subjects undergoing cardiac catheterization; format: in vivo; conditions: both sexes, human, plasma
Experimental: as §3, §4

[13] = Example 2: PD model of average coronary peak flow velocity (APV), intracoronary Doppler flow wire; format: in vivo, human
Experimental: as §3, §4

**Q.** With `CCNC(=O)[C@H]1O[C@@H](n2cnc3c(N)nc(NCCc4ccc(CCC(=O)O)cc4)nc32)[C@H](O)[C@@H]1O` [CGS 21680] as the compound, how does the “values of EC50 lower than for regadenoson, on average” value [1] read?
**A.** The value was 13 fold.

**Q.** What does the source list for `CNC(=O)c1cnn(-c2nc(N)c3ncn([C@@H]4O[C@H](CO)[C@@H](O)[C@H]4O)c3n2)c1` [regadenoson, (1-{9-[(4S,2R,3R,5R)-3,4-dihydroxy-5-(hydroxymethyl)oxolan-2-yl]-6-aminopurin-2-yl}pyrazol-4-yl)-N-methylcarboxamide]?
**A.** EC50 ([2]; Homo sapiens, read-out: concentration causing half-maximal increase in HR (potency)): 0.0124 µg/mL (≈ 0.0318 µM); maximal increase in HR ([2]; healthy male subjects, model estimate): 76 bpm; solubility [3]: ~50 µg/mL (≈ 128 µM); Vd ([4]; plasma, healthy male subjects, IV bolus, read-out: volume of distribution): 83.3 L; clearance ([4]; plasma, healthy male subjects, single IV bolus 0.1 to 30 μg/kg, three-compartmental model, read-out: population value of clearance (CL) (converted)): 677 mL/min; renal clearance as share of the total clearance ([4]; male, in vivo, iv): 57%; IC50 [5]: 0.108 ± 0.008 µM; IC50 [6]: 0.437 ± 0.044 µM; IC50 [7]: 0.328 ± 0.032 µM; Ki [8]: 0.043 ± 0.003 µM; adverse events, severity ([9]; healthy male subjects, IV bolus 0.1 to 30 μg/kg): mild to moderate; MTD at 24 h ([9]; standing, dose-limiting syncope or near syncope, read-out: maximum tolerated dose, standing position): 0.01 mg/kg; MTD at 24 h ([9]; supine, read-out: maximum tolerated dose, supine position): 0.02 mg/kg; dose generally well tolerated, standing patients ([9]; standing): up to 10 μg/kg; dose generally well tolerated, supine patients ([9]; supine): up to 20 μg/kg; Ki [10]: 0.318 ± 0.005 µM; EC50 ([11]; Homo sapiens, read-out: potency on HR): 0.0275 µg/mL (≈ 0.0704 µM); maximum increase in the HR ([11]; model estimate): 41 bpm; Vd ([12]; IV bolus, read-out: volume of distribution): 68.1 L; clearance ([12]; single IV bolus 10 to 500 μg, three-compartment model): 498 mL/min; distribution rate constant from the plasma to the effect site ([13]; APV PD model): 4 min⁻¹; EC50 ([13]; Homo sapiens, catheterization subjects, read-out: potency (concentration that causes half maximal effect) on APV): 0.0299 µg/mL (≈ 0.0766 µM); maximal increase in APV ([13]; model estimate, effect compartment): 105 cm/s
